In US7615361B2, “Toxicity screening methods” (Ceetox, Inc., priority 2006, dated 2009):

Assays:
[1] = BrdU incorporation; format: cell-based, human; settings: human, run #2, read-out: BrdU TC50; for CC50 at 24 h: SK-MEL28, 24 HR; for CC50 at 72 h: SK-MEL28, 72 HR
Protocol: Bromodexoyurine (BrDU) Incorporation: This assay was used to monitor cumulative changes in DNA replication. The assay uses the thymidine analog BrdU to measure S-phase of cell replication and is considered to be the Gold Standard for cell proliferation. BrDU (10 μM) was included in the test compound dosing solution to allow BrDU incorporation during cell replication. BrDU was included for the duration of the exposure, 24 hr. After completion of exposure period, the cells were fixed and labeled with mouse monoclonal anti-BrDU (FITC). Fluorescence was measured using a Packard Fusion or equivalent plate reader at 485 nm excitation and 530 nm emission.
Bromodexoyurine (BrDU) Incorporation: After incubation, the test compound/BrDU solution was removed and cells were fixed. A solution containing mouse monoclonal anti-BrDU (FITC) was added and fluorescence was measured. Data were collected as relative fluorescent units (RFU). The blank was subtracted from the final well RFU. It represents the average of the first and last columns which contain no cells on that particular plate. The controls are untreated cells allowed to grow on the same plate. The compounds are represented by several separate RFU data points for each of the tested concentrations. The percent change relative to controls was calculated by dividing the average RFU by the control cell RFU and multiplying by 100.
Experiments were also conducted to verify the relationship between exposure time and the observed cytostatic effects of the test compound. An additional assay was used to monitor cumulative change in DNA replication. The assay uses the thymidine analog BrdU to measure S-phase of cell replication and is considered to be the Gold Standard for cell proliferation. […] The BrdU assay paralleled the MTT and propidium iodide assays. The apparent lower sensitivity of the BrdU assay is a reflection of the experimental design not the assay. BrdU data represents a cumulative effect from the beginning of exposure while the other assays are measuring one is remaining at the end of either the 24 hr or 72 hr exposure period. […] There was a trend toward increasing activity in caspase-3, a marker for cell apoptosis.

[2] = Cell number (propidium iodide); format: cell-based; settings: human, read-out: Cell Number TC50; for CC50 at 72 h: SK-MEL28 cells, SK-MEL28, 72 HR, run #2
Protocol: Cell Proliferation: Cell proliferation in each well was measured with propidium iodide (PI). This specific nucleic acid binding dye fluoresces when intercalated within the nucleic acids. The 15 nm shift enhances PI fluorescence approximately 20 times while the excitation maxima are shifted 30-40 nm. During method development experiments, it was determined that Triton-X-100 was the best solution to permeabilize the H4IIE cells thereby allowing the PI access to intracellular RNA and DNA. Fluorescence was measured using a Packard Fusion plate reader or equivalent reader at 540 nm excitation and 610 nm emission.
Cell Proliferation: After incubation, the test compound was removed and Triton X-100 solution containing propidium iodide is added. The plate was incubated and read on a fluorescent plate reader. Data was collected as relative fluorescent units (RFU). The blank was subtracted from the final well RFU. It represents the average of the first and last columns which contain no cells on that particular plate. The controls are untreated cells allowed to grow on the same plate. The compounds are represented by several separate RFU data points for each of the tested concentrations. The percent change relative to controls was calculated by dividing the average RFU by the control cell RFU and multiplying by 100.
Dosing solutions were prepared in complete culture medium.

[3] = target: P-glycoprotein (PgP) (Homo sapiens, UniProt P08183); assay: P-glycoprotein (PgP) binding: MTT with and without cyclosporin A, human hepatocytes; format: cell-based; parameters: SK-MEL28, human hepatocytes, HUVEC, C32, and NHEM cells were used as the test systems; endogenous in cells; settings: for % Control (Compound + CSA) / % Control (Compound): human hepatocytes 24 HR, MTT; for % Control (Compound + CSA): with cyclosporin A; for % Control (Compound): without CSA; for % Difference: human hepatocytes, 24 HR
Protocol: P-glycoprotein (PgP) transport proteins are expressed in the bile canalicular membrane of normal liver. However, in neoplastic cells it is not uncommon to have expression of this transporter system in the plasma membrane. The H4IIE cells have a very active efflux pump activity in the plasma membrane. As a result, compounds that are substrates for this transporter may not accumulate inside the cell. The existence of these transporters was evaluated with the Calcein-AM assay and with known substrates of PgP. […] Therefore, compounds that show negative toxicity should be evaluated as potential substrates of PgP and compared to data shown in the PgP table of this example.
The cell supernatant or the cells themselves were harvested for biochemical analysis. General cytotoxicity was evaluated by monitoring membrane integrity, mitochondrial function, cell proliferation, oxidative stress, and apoptosis. In addition to monitoring biochemical changes essential for cell health, interaction with P-glycoprotein (PgP) and solubility were also assessed. The means of each exposure group (n=3-7) were calculated for each assay performed. Intra assay variation well to well was typically less than 10% with plate to plate variation typically less than 20%.

Chain of P-glycoprotein (PgP) (P08183 whole entry): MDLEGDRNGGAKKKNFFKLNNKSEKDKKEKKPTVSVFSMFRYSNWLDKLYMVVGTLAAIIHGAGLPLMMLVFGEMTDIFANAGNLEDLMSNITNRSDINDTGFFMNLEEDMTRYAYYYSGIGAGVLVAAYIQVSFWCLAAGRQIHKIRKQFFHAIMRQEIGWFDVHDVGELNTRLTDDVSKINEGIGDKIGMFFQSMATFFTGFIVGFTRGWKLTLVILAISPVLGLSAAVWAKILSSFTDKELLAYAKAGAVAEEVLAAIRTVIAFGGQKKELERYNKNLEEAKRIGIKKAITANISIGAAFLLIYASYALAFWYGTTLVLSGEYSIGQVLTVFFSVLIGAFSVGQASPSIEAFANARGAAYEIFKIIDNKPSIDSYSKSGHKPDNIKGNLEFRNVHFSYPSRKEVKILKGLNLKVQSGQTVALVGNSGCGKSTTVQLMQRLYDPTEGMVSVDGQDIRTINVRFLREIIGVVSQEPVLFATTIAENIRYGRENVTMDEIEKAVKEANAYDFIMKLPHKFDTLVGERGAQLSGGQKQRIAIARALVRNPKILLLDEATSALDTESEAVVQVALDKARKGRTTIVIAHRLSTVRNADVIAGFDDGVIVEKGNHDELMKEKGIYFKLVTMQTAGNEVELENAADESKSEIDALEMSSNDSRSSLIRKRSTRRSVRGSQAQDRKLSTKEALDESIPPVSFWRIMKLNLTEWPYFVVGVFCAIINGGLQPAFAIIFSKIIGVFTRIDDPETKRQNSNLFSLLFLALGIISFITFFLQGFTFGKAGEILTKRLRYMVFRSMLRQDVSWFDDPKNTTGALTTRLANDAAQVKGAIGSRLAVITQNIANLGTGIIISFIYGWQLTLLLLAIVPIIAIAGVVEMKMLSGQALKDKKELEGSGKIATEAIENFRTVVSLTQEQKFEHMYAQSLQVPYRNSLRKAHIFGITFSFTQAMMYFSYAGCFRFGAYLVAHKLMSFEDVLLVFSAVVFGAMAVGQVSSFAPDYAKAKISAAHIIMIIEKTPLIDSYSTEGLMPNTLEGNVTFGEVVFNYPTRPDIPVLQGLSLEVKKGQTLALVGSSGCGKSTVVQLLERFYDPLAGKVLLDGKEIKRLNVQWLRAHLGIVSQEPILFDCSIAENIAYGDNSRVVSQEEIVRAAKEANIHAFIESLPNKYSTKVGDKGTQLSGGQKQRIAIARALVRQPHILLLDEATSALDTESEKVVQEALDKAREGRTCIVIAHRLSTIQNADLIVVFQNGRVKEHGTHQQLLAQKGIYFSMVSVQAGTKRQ

Row | SMILES | CC50 at 24 h ([1]; SK-MEL28 cells) | CC50 at 72 h ([1]; SK-MEL28 cells) | CC50 at 24 h ([2]; HUVEC) | CC50 at 72 h [2] | % Control (Compound + CSA) [3] | % Control (Compound) [3] | % Difference [3] | CC50 at 24 h [1] | CC50 at 72 h [1]
1 | CC[C@@]1(O)C(=O)OCc2c1cc1n(c2=O)Cc2cc3ccccc3nc2-1 [CAMPTOTHECIN, Camptothecin] | 0.1 µM | 0.2 µM | 85 µM | 100 nM | 65.8% | 88.5% | 25.7% |  | 
2 | C=C(C)[C@H]1Cc2c(ccc3c2O[C@@H]2COc4cc(OC)c(OC)cc4[C@@H]2C3=O)O1 [ROTENONE, Rotenone] |  |  |  | 1000 nM | 60.9% | 97.1% | 37.2% | 9 µM | 44 µM
